{
  "source": "patent US20160310621A1",
  "about": "“IMAGING PROBES, FORMULATIONS, AND USES THEREOF” (priority 2015, published 2016)",
  "system": "rat model of arthritis (bone uptake)",
  "assay": "PET imaging in rat HKMT/IFA model of arthritis",
  "format": "in vivo",
  "excerpt": "Single modality BP imaging probes with ^18F were generated according to the Schemes described in FIGS. 6A-6B and FIG. 7. […] A rat (Lewis rats, 6-12 weeks of age) model of arthritis was generated by subcutaneous injection of heat killed Mycobacterium tuberculosis (strain H37Ra) suspended in incomplete Freund's adjuvant (HKMT/IFA). […] The swelling was easily identifiable by day 16 post injection, but undetectable in the animals on day 7 (FIGS. 12A-12D).\nRats were given a total of about 500 μCi (about 0.5 nmole) of freshly prepared ^18F-RIS-SFB (single modality BP conjugated imaging probe) by i.v. injection. PET imaging was conducted using a GE eXplore Vista small animal PET system.",
  "note": "Entries after “also recorded” stand apart in the source; their conditions may differ.",
  "data": [
    {"compound": "[18F-].[Na+]", "note": "[Na^18F]", "values": [
      {"measurement": "time at which increased accumulation in bone is seen by PET", "setting": "RA model rats, post induction", "result": "~18", "unit": "days"},
      {"measurement": "detection of early bone involvement in RA by PET", "setting": "early time point (day 7), before clinical signs", "result": "fails to detect the earliest signs of bone involvement in RA; also recorded: does not detect the early bone involvement in RA at day 7"}
    ]}
  ]
}
